Results published in US20150189882A1, “ACTIVE INGREDIENT COMBINATIONS HAVING INSECTICIDAL AND ACARICIDAL PROPERTIES” (priority 2011, published 2015).
Read-outs that look alike come from different tables or passages of the source.

Assays:
[1] = tested on: Phaedon cochleariae larvae; experiment: whole plant or invertebrate
Myzus persicae [2] = experiment: whole plant or invertebrate; conditions: in Brassica rapa, foliar
[3] = tested on: Tetranychus urticae (OP-resistant); experiment: Tetranychus urticae - test (OP-resistant), French bean leaf discs; type: in vivo
Experimental: (§1) To produce a suitable preparation of active compound, 1 part by weight of active compound is mixed with the stated amount of solvent and emulsifier, and the concentrate is diluted with emulsifier-containing water to the desired concentration. To produce a suitable preparation of a biological suspension the cells or spores are diluted with emulsifier-containing water to the desired concentration.
Leaf discs of French beans (Phaseolus vulgaris) infected with all instars of the Two-spotted spider mite (Tetranychus urticae), are sprayed with a preparation of the active ingredient at the desired concentration.
After the specified period of time mortality in % is determined. 100% means that all spider mites have been killed; 0% means that none of the spider mites have been killed.

Spodoptera frugiperda = Spodoptera frugiperda - spray application; type: in vivo; conditions: for mortality at 4 g/ha: 4 g ai/ha; for mortality at 20 g/ha: 20 g ai/ha
Experimental: as §1, with “cells, viruses” for “cells”
Cabbage (Brassica oleracea) leaf-discs are sprayed with a preparation of the active ingredient at the desired concentration. Once dry, the leaf discs are infested with larvae of the fall army worm (Spodoptera frugiperda).
After the specified period of time, mortality in % is determined. 100% means that all the caterpillars have been killed; 0% means that none of the caterpillars have been killed. The mortality values thus determined are recalculated using the Colby-formula.

Myzus persicae [4] = tested on: Myzus persicae
[5] = tested on: Phaedon cochleariae larvae
[6] = tested on: Tetranychus urticae (OP-resistant); experiment: Tetranychus urticae - test; OP-resistant (TETRUR), bean plants sprayed; type: in vivo
Experimental: as §1, with “the desired concentration Ammonium salt and/or penetration enhancer in a dosage of 1000 ppm are added to the desired concentration if necessary. To produce” for “the desired concentration. To produce”
Bean plants (Phaseolus vulgaris) which are heavily infested with all stages of the two-spotted spider mite (Tetranychus urticae) are treated by being sprayed with the preparation of the active compound of the desired concentration.
After the specified period of time, mortality in % is determined 100% means that all the spider mites have been killed; 0% means that none of the spider mites have been killed.

soybean (Glycine max) [7] = experiment: Seed treatment - germination test soybean; type: in vivo; conditions: 0.15 g ai/kg seeds
Experimental: Seeds of soybean (Glycine max) were treated by being mixed with the desired amount of active compound and spores and water. After drying, 25 seeds were sown into each pot filled with sandy loam.
After the specified period of time the level of activity expressed in % was determined. The level of activity was calculated on the basis of the number of soybean plants which have successfully germinated.

soybean (Glycine max) [8] = experiment: Shoot weight - soybean (seed treatment); type: in vivo; conditions: 0.3 g ai/kg seeds
Experimental: Seeds of soybean (Glycine max) were treated by being mixed with the desired amount of active compound and spores and water. After drying, each seed was sown into a pot filled with loamy sand. The pots were placed in the greenhouse with conditions appropriate for good plant growth.
After the specified period of time the plants were harvested and the shoot weight of the plants was determined. The weight is expressed in % whereupon the weight of the control is set 100%.

[9] = read-out: Mortality in % after 6^d
[10] = read-out: Mortality in % after 1^d
[11] = read-out: Mortality in % after 2^d
[12] = Spodoptera frugiperda, read-out: Mortality in % after 2^d
[13] = Spodoptera frugiperda, read-out: Mortality in % after 6^d

Compound: CC(c1ccc(C(F)(F)F)nc1)S(C)(=O)=NC#N (centres unmarked) [Sulfoxaflor]
- mortality at 4 g/ha [1, 9]: 0%
- mortality at 0.16 g/ha (Myzus persicae [2]; [10]): 0%
- mortality at 0.16 g/ha ([3]; Tetranychus urticae, foliar, 0.16 g ai/ha, read-out: Mortality in % after 2^d): 0%

Compound: Milbemectin
- Mortality in % after 6^d (Spodoptera frugiperda; 0.8 g ai/ha): 0%
- Mortality in % after 6^d (Myzus persicae [4]; 4 g ai/ha): 70%

Compound: C/C=C(\C)C(=O)O[C@H]1C[C@@H](OC(C)=O)[C@@]2(C(=O)OC)CO[C@H]3[C@@H](O)[C@@](C)([C@]45O[C@@]4(C)[C@H]4C[C@@H]5O[C@@H]5OC=C[C@@]54O)[C@H]4[C@]1(CO[C@]4(O)C(=O)OC)[C@@H]32 [Azadirachtin]
- mortality at 100 g/ha (Myzus persicae [2]; [9]): 0%
- mortality at 100 g/ha ([3]; Tetranychus urticae, foliar, 100 g ai/ha, read-out: Mortality in % after 2^d): 0%

Compound: Lepimectin
- Mortality in % after 2^d ([5]; 4 g ai/ha): 50%

Compound: O=C1C=C(N(Cc2ccc(Cl)nc2)CC(F)F)CO1 [Flupyradifurone]
- Mortality in % after 2^d ([5]; 500 g ai/ha): 50%
- Mortality in % after 1^d (Myzus persicae [4]; 20 g ai/ha): 70%
- Mortality in % after 2^d ([3]; 0.8 g ai/ha): 0%

Compound: Cc1cc(F)c(-n2nc(C(F)(F)F)nc2N)cc1[S+]([O-])CC(F)(F)F (racemic) [Compound (I)]
- mortality at 0.8 ppm ([6]; read-out: Mortality in % after 3^d): 40%
- mortality at 0.8 ppm ([6]; read-out: Mortality in % after 5^d): 40%
- % Germination after 3 days control was set 100% (soybean (Glycine max) [7]): 97%
- mortality at 0.8 g/ha [1, 11]: 0%
- mortality at 4 g/ha [1, 11]: 0%
- mortality at 20 g/ha [1, 11]: 0%
- mortality at 100 g/ha [1, 11]: 0%
- mortality at 4 g/ha [1, 9]: 0%
- mortality at 20 g/ha [1, 9]: 0%
- mortality at 100 g/ha [1, 9]: 0%
- Shoot weight after 21 days control was set 100% (soybean (Glycine max) [8]): 98%
- mortality at 0.8 g/ha (Spodoptera frugiperda; Spodoptera frugiperda, 0.8 g ai/ha, read-out: Mortality in % after 6^d): 0%
- mortality at 4 g/ha (Spodoptera frugiperda; [12]): 0%
- mortality at 4 g/ha (Spodoptera frugiperda; [13]): 0%
- mortality at 20 g/ha (Spodoptera frugiperda; [12]): 0%
- mortality at 20 g/ha (Spodoptera frugiperda; [13]): 0%
- mortality at 100 g/ha (Spodoptera frugiperda; Spodoptera frugiperda, 100 g ai/ha, read-out: Mortality in % after 2^d): 0%
- mortality at 100 g/ha (Spodoptera frugiperda; Spodoptera frugiperda, 100 g ai/ha, read-out: Mortality in % after 6^d): 0%
- mortality at 4 g/ha (Myzus persicae [2]; [10]): 0%
- mortality at 20 g/ha (Myzus persicae [2]; [10]): 0%
- mortality at 100 g/ha (Myzus persicae [2]; [10]): 0%
- mortality at 4 g/ha (Myzus persicae [2]; [9]): 0%
- mortality at 20 g/ha (Myzus persicae [2]; [9]): 0%
- mortality at 100 g/ha (Myzus persicae [2]; [9]): 0%
- mortality at 4 g/ha ([3]; Tetranychus urticae, foliar, 4 g ai/ha, read-out: Mortality in % after 2^d): 30%
- mortality at 4 g/ha ([3]; Tetranychus urticae, foliar, 4 g ai/ha, read-out: Mortality in % after 6^d): 30%
- mortality at 20 g/ha ([3]; Tetranychus urticae, foliar, 20 g ai/ha, read-out: Mortality in % after 2^d): 80%

Compound: Emamectin benzoate [Emamectin-benzoate]
- Mortality in % after 2^d ([5]; 0.8 g ai/ha): 67%

Compound: CC1(C)[C@H](C(=O)O[C@H](C#N)c2cccc(Oc3ccccc3)c2)[C@@H]1/C=C(\Cl)C(F)(F)F (racemic) [Lambda-Cyhalothrin, lambda-Cyhalothrin]
- mortality at 0.8 g/ha [1, 11]: 67%
- mortality at 0.16 g/ha (Spodoptera frugiperda; Spodoptera frugiperda, 0.16 g ai/ha, read-out: Mortality in % after 6^d): 33%
- mortality at 0.16 g/ha (Myzus persicae [2]; [9]): 0%

Compound: CC1(C)C(C=C(Cl)Cl)C1C(=O)OC(C#N)c1ccc(F)c(Oc2ccccc2)c1 (stereo not drawn) [Beta-Cyfluthrin, beta-Cyfluthrin]
- Mortality in % after 6^d (Spodoptera frugiperda; 0.8 g ai/ha): 83%
- Mortality in % after 6^d ([5]; 0.8 g ai/ha): 50%

Compound: O=[N+]([O-])NC1=NCCN1Cc1ccc(Cl)nc1 [Imidacloprid]
- mortality at 20 g/ha [1, 9]: 0%
- mortality at 0.8 g/ha (Myzus persicae [2]; [10]): 0%
- mortality at 0.8 g/ha ([3]; Tetranychus urticae, foliar, 0.8 g ai/ha, read-out: Mortality in % after 2^d): 0%

Compound: CCOP(=S)(OCC)Oc1nc(Cl)c(Cl)cc1Cl [Chlorpyrifos]
- mortality at 100 g/ha (Spodoptera frugiperda; [12]): 50%
- mortality at 4 g/ha (Myzus persicae [2]; [10]): 70%
- mortality at 4 g/ha ([3]; Tetranychus urticae, foliar, read-out: Mortality in % after 2^d): 0%
